Experimental data as given in US11571480B2, “Multi-ligand drug conjugates and uses thereof” (priority 2015, dated 2023).
Square brackets hold non-standard residues; d marks the D form. Peptide text beside a SMILES is read from it. * marks the point of attachment. Dolaproine = CO[C@@H]([C@@H]1CCCN1)[C@@H](C)C(=O)O; Dil = CC[C@H](C)[C@H](NC)[C@@H](CC(=O)O)OC; X1 = C[C@@H](N*)[C@@H](O)c1ccccc1; NMeV = CN[C@H](C(=O)O)C(C)C

Legend:
[1] = test system: ovarian cancer cell SKOV3; assay: Cytotoxicity test of conjugate LDC11B; format: cell-based, human; conditions: SKOV3, incubated 15-30 min, then 2-3 days
Protocol: (§1) Culture medium: RPMI 1640 Medium, no folic acid
(§2) 1) human lung cancer cell H460, ovarian cancer cell SKOV3, human embryonic kidney cell 293A were incubated at 37° C., 5% CO2 in RPMI 1640 medium containing 10% fetal bovine serum, the cells were passaged every 2-3 days.
(§3) 2) human lung cancer cell H460, ovarian cancer cell SKOV3, human embryonic kidney cell 293A were plated at 1×10^3 cells per well (96-well plate) and incubated for 8-12 h at 37° C., 5% CO2.
(§4) 3) Stock solutions of LDC conjugates or control were prepared in PBS solution. 100 μL/well of serially diluted LDC conjugates or control was added to the cells in the plate and incubated for 15-30 min at 37° C., 5% CO2. The culture medium in the wells was then removed by aspiration and the cells were incubated in fresh culture medium without conjugates (150 μL/well) for 2-3 days at 37° C., 5% CO2.
(§5) 4) CellTiter 96® Aqueous One Solution Cell Proliferation Assay (Promega) was added to each well to measure the amount of […] cells, and the plate was incubated in an incubator for 1 h at 37° C., 5% CO2.
(§6) 5) The plate was read at 490 nm on a microplate reader, and the cell survivals were compared for cells with or without the treatment of LDC conjugates. The LDC drug concentrations that are required for 50% cell death (IC50 values) were determined.

[2] = test system: human lung cancer cell H1299; assay: Cytotoxicity test of conjugate LDC10H; format: cell-based; conditions: H1299, incubated 15-30 min, then 2-3 days
Protocol: as §1
(§7) 1) human lung cancer cell H1299, ovarian cancer cell SKOV3, breast cancer cell line HCC1954, and human lung cancer cell H460 were incubated at 37° C., 5% CO2 in RPMI 1640 medium containing 10% fetal bovine serum, the cells were passaged every 2-3 days.
(§8) 2) human lung cancer cell H1299, ovarian cancer cell SKOV3, breast cancer cell line HCC1954, and human lung cancer cell H460 were plated at 1×10^3 cells per well (96-well plate) and incubated for 8-12 h at 37° C., 5% CO2.
as §4, §5
(§9) 5) the plate was read at 490 nm on a microplate reader, and the cell survivals were compared for cells with or without the treatment of LDC conjugates. The LDC drug concentrations that are required for 50% cell death (IC50 values) were determined.

[3] = test system: human lung cancer cell H460; assay: Cytotoxicity test of conjugate LDC10H; format: cell-based; conditions: H460, incubated 15-30 min, then 2-3 days
Protocol: as §1, §7, §8, §4, §5, §9

[4] = test system: human lung cancer cell H460; assay: Cytotoxicity test of conjugate LDC11B; format: cell-based; conditions: H460, incubated 15-30 min, then 2-3 days
Protocol: as §1, §2, §3, §4, §5, §6

[5] = test system: human embryonic kidney cell 293A; assay: Cytotoxicity test of conjugate LDC11B; format: cell-based; conditions: incubated 15-30 min, then 2-3 days
Protocol: as §1, §2, §3, §4, §5, §6

[6] = test system: human endometrial cancer cell HEC-1A; assay: Cytotoxicity test of conjugate LDC12B; format: cell-based; conditions: incubated 15-30 min, then 2-3 days
Protocol: as §1
(§10) 1) human endometrial cancer cell HEC-1A, human gastric cancer cell line GTL-16, human colon carcinoma HCT-116, human neuroblastoma cell line SH-SY5Y were incubated at 37° C., 5% CO2 in RPMI 1640 medium containing 10% fetal bovine serum, the cells were passaged every 2-3 days.
(§11) 2) human endometrial cancer cell HEC-1A, human gastric cancer cell line GTL-16, Human colon carcinoma HCT-116, human neuroblastoma cell line SH-SY5Y were plated at 1×10^3 cells per well (96-well plate) and incubated for 8-12 h at 37° C., 5% CO2.
as §4, §5, §9

[7] = test system: human neuroblastoma cell line SH-SY5Y; assay: Cytotoxicity test of conjugate LDC12B; format: cell-based; conditions: incubated 15-30 min, then 2-3 days
Protocol: as §1, §10, §11, §4, §5, §9

[8] = test system: human colon carcinoma HCT-116; assay: Cytotoxicity test of conjugate LDC12B; format: cell-based; conditions: HCT-116, incubated 15-30 min, then 2-3 days
Protocol: as §1, §10, §11, §4, §5, §9

[9] = test system: human gastric cancer cell line GTL-16; assay: Cytotoxicity test of conjugate LDC12B; format: cell-based; conditions: GTL-16, incubated 15-30 min, then 2-3 days
Protocol: as §1, §10, §11, §4, §5, §9

[10] = test system: breast cancer cell line HCC1954; assay: Cytotoxicity test of conjugate LDC10H; format: cell-based, human; conditions: HCC1954, incubated 15-30 min, then 2-3 days
Protocol: as §1, §7, §8, §4, §5, §9

[11] = test system: ovarian cancer cell SKOV3; assay: Cytotoxicity test of conjugate LDC10H; format: cell-based, human; conditions: SKOV3, incubated 15-30 min, then 2-3 days
Protocol: as §1, §7, §8, §4, §5, §9

Which results are given for `CC[C@H](C)[C@@H]([C@@H](CC(=O)N1CCC[C@H]1[C@H](OC)[C@@H](C)C(=O)N[C@H](C)[C@@H](O)c1ccccc1)OC)N(C)C(=O)[C@@H](NC(=O)[C@@H](NC)C(C)C)C(C)C` [MMAE] (H-[NMeV]V[Dil][Dolaproine]-X1)?
IC50 [1]: 0.44 nM; IC50 [2]: 0.71 nM; IC50 [3]: 0.56 nM; IC50 [4]: 0.58 nM; IC50 [5]: 0.86 nM; IC50 [6]: 8.74 nM; IC50 [7]: 24 nM; IC50 [8]: 12.7 nM; IC50 [9]: 6.38 nM; IC50 [10]: 0.29 nM; IC50 [11]: 0.49 nM
